Earlier results on one molecule are cited in patent US12318461B2, “Salicylic acid gel” (Vantage Specialty Ingredients, Inc., priority 2012, dated 2025).

Consider `O=C(O)c1ccccc1O` [Salicylic acid, 2-hydroxybenzenecarboxylic acid], for which the solubility in water entry is listed as “poorly soluble”.
